Measurements reported in ChEMBL document CHEMBL6134851, “Comparative Study on Covalent and Noncovalent Endogenous Albumin-Binding β-Glucuronidase-Activated SN38 Prodrugs for Antitumor Efficacy” (J Med Chem, 2025).
Calls of active or inactive are those of the source. The rule behind the calls is not given here.

What was measured:
Albumin = Albumin (Homo sapiens, UniProt P02768); test: Binding affinity to human serum albumin assessed as binding rate measured after 24 mins by HPLC analysis relative to control; assay type: ADME; conditions: isolated protein, 0.4 h
[1] = Toxicity in female BALB/cA nude mouse assessed as fibrotic changes in lung at 38 mg/kg, iv administered once a week for 35 days by H and E staining based analysis; assay type: organism-based; conditions: in vivo, 840 h, time 35 day
[2] = Toxicity in female BALB/cA nude mouse assessed as damage in heart at 38 mg/kg, iv measured after 24 hrs by H and E staining based analysis; assay type: organism-based; conditions: in vivo
[3] = Toxicity in female BALB/cA nude mouse assessed as effect on body weight loss at 38 mg/kg, iv administered twice per week measured after 107 days; assay type: organism-based; conditions: in vivo, 2568 h, time 107 day
[4] = Toxicity in female BALB/cA nude mouse assessed as fibrotic changes in spleen at 25 mg/kg, iv administered once a week for 35 days by H and E staining based analysis; assay type: organism-based; conditions: in vivo, 840 h, time 35 day
HCT-116 [5] = test: Antitumor activity against human HCT-116 cells xenografted in female BALB/cA nude mouse model assessed as increase in tumor cell apoptosis by measuring increase in red fluorescence at 25 mg/kg, iv by TUNEL analysis; assay type: functional, organism-based
HCT-116 [6] = test: Antitumor activity against human HCT-116 cells xenografted in female BALB/cA nude mouse model assessed as tumor shrinkage at 25 mg/kg, iv administered twice per week measured after 100 days relative to control; assay type: functional; conditions: time 100 day
[7] = Toxicity in female BALB/cA nude mouse assessed as fibrotic changes in kidney at 25 mg/kg, iv administered once a week for 35 days by H and E staining based analysis; assay type: organism-based; conditions: in vivo, 840 h, time 35 day

Albumin, sequence (P02768 whole entry): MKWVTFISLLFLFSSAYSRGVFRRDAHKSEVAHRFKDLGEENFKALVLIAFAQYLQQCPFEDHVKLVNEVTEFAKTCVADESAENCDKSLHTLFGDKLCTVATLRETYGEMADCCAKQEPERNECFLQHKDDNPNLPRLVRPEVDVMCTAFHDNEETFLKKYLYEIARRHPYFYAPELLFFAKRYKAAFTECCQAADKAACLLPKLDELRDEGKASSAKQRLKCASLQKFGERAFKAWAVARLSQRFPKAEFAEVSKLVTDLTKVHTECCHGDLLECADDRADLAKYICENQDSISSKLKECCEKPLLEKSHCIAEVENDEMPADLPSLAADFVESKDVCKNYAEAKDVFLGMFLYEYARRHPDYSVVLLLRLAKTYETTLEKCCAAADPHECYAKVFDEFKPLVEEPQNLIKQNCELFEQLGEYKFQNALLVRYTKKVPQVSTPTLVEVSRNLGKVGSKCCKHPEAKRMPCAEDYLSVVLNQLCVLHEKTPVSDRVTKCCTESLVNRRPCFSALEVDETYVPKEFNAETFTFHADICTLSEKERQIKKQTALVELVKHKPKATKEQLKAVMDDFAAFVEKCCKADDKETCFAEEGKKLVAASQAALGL

SMILES: CCc1c2c(nc3ccc(OCc4ccc(O[C@@H]5O[C@H](C(=O)O)[C@@H](O)[C@H](O)[C@H]5O)c(NC(=O)CCNC(=O)COCCOCCNC(=O)COCCOCCNC(=O)CC[C@H](NC(=O)CCCCCCCCCCCCCCCCC(=O)O)C(=O)O)c4)cc13)-c1cc3c(c(=O)n1C2)COC(=O)[C@]3(O)CC
- Activity (Albumin): 94%
- Activity [1]: Non-toxic
- Activity [2]: Toxic
- Activity [3]: Toxic

SMILES: CCc1c2c(nc3ccc(OCc4ccc(O[C@@H]5O[C@H](C(=O)O)[C@@H](O)[C@H](O)[C@H]5O)c(NC(=O)CCNC(=O)CCCCCN5C(=O)C=CC5=O)c4)cc13)-c1cc3c(c(=O)n1C2)COC(=O)[C@]3(O)CC
- Activity [4]: Non-toxic
- Activity (HCT-116 [5]): Active
- Activity (HCT-116 [6]): 100%
- Activity [7]: Non-toxic
